The record followed here is DBAASP.

Common to all, as to assay: ≥ marks a high value that may be exact or a test limit, other limits are often not marked, values filed in µg/mL are converted to µM
In assay [1] the test system is Pseudomonas aeruginosa ATCC 27853.
Assay [2] has as its system Klebsiella pneumoniae ATCC 43816.
Assay [3] has as its system Staphylococcus aureus NCTC 12493.
In assay [4] the test system is Enterococcus faecalis NCTC 12697.
In assay [5] the test system is Staphylococcus aureus NCTC 10788.
Assay [6] concerns Candida albicans NCYC 1467.
Assay [7] deals with Escherichia coli NCTC 10418.
The test system of assay [8] is Bacillus cereus.
The subject of assay [9] is Staphylococcus aureus.
Assay [10] concerns Escherichia coli.
For assay [11], the system named is Pseudomonas aeruginosa.
For assay [12], the system named is Candida albicans F7-39/IDE99.
Assay [13] relates to Bacillus subtilis 168.
Assay [14] concerns Escherichia coli B.
Assay [15] concerns Escherichia coli DH5alpha.
In assay [16] the test system is Salmonella typhimurium.
The subject of assay [17] is Klebsiella pneumoniae.

≈ marks a conversion by molar mass, not a printed value.

Regarding `CSCC[C@H](NC(=O)[C@H](CC(=O)O)NC(=O)[C@@H](NC(=O)[C@@H](NC(=O)[C@H](CCCCN)NC(=O)[C@H](CC(N)=O)NC(=O)[C@H](CC(C)C)NC(=O)[C@@H](NC(=O)[C@H](C)NC(=O)[C@H](CCCCN)NC(=O)CNC(=O)[C@H](C)NC(=O)[C@H](C)NC(=O)[C@H](CCCCN)NC(=O)CNC(=O)[C@@H](NC(=O)[C@H](CC(N)=O)NC(=O)[C@H](CCCCN)NC(=O)[C@H](CC(C)C)NC(=O)[C@H](CC(C)C)NC(=O)[C@H](CC(=O)O)NC(=O)[C@H](CCCCN)NC(=O)[C@H](Cc1c[nH]c2ccccc12)NC(=O)[C@H](CC(C)C)NC(=O)[C@H](C)N)C(C)C)C(C)C)C(C)C)[C@@H](C)O)C(=O)N[C@H](C(=O)N[C@@H](CC(N)=O)C(=O)N[C@@H](CCC(N)=O)C(N)=O)C(C)C` [ALWKDLLKNVGKAAGKAVLNKVTDMVNQ], the MIC (in general, the lowest concentration that inhibits growth of the organism) in assay [1] was 8 µM (≈ 24.2 µg/mL); in assay [2], 8 µM (≈ 24.2 µg/mL); in assay [3], 8 µM (≈ 24.2 µg/mL); in [4], at least 128 µM; in assay [5], 4 µM (≈ 12.1 µg/mL); in assay [6], 4 µM (≈ 12.1 µg/mL). In addition, in assay [7], the minimal inhibitory concentration (MIC) is 4 µM (≈ 12.1 µg/mL).
For the compound `CC[C@H](C)[C@H](NC(=O)[C@H](C)NC(=O)[C@H](C)NC(=O)[C@@H]1CCCN1C(=O)[C@@H](NC(=O)[C@H](CC(C)C)NC(=O)[C@H](CCCCN)NC(=O)CNC(=O)[C@H](C)NC(=O)[C@@H](NC(=O)[C@H](CCCCN)NC(=O)[C@H](CC(C)C)NC(=O)[C@@H](NC(=O)[C@H](C)NC(=O)CNC(=O)[C@H](CC(C)C)NC(=O)[C@@H](N)Cc1ccccc1)C(C)C)C(C)C)C(C)C)C(=O)N[C@H]1CSSC[C@@H](C(=O)O)NC(=O)[C@H](CCCCN)NC(=O)[C@H](CCCCN)NC(=O)[C@H](CO)NC(=O)[C@H]([C@@H](C)CC)NC(=O)[C@H](CCCCN)NC1=O` [FLGAVLKVAGKLVPAAICKISKKC], the MIC in assay [1] was determined as 32 µM (≈ 78.6 µg/mL); in assay [2], 8 µM (≈ 19.6 µg/mL); in assay [3] it was 4 µM (≈ 9.82 µg/mL); in [4] it was 8 µM (≈ 19.6 µg/mL); in [5] it was 2 µM (≈ 4.91 µg/mL); in assay [6] it was 2 µM (≈ 4.91 µg/mL). Also, the MIC in assay [7] worked out at 4 µM (≈ 9.82 µg/mL).
As to `CC(C)C[C@H](NC(=O)[C@H](CCCCN)NC(=O)[C@H](Cc1ccccc1)NC(=O)[C@@H](NC(=O)[C@@H](NC(=O)CNC(=O)[C@H](CC(C)C)NC(=O)[C@@H](N)Cc1ccccc1)C(C)C)C(C)C)C(=O)N[C@@H](C)C(=O)N[C@@H](CO)C(=O)N[C@@H](CCCCN)C(=O)N[C@H](C(=O)N[C@@H](Cc1ccccc1)C(=O)N1CCC[C@H]1C(=O)N[C@@H](C)C(=O)N[C@H](C(=O)N[C@H](C(=O)NCC(=O)N[C@@H](CCCCN)C(=O)N[C@H](C(=O)O)C(C)C)C(C)C)C(C)C)C(C)C` [FLGVVFKLASKVFPAVVGKV], the values for the MIC in assay [8], in assay [9] and in assay [10] were 30.4 µM (≈ 64 µg/mL), 15.2 µM (≈ 32 µg/mL) and 122 µM (≈ 256 µg/mL), respectively.
For `CC[C@H](C)[C@@H]1NC(=O)[C@H](C)NC(=O)[C@@H](NC(=O)[C@H](CCCCN)NC(=O)[C@H](C)NC(=O)[C@H](C)NC(=O)[C@H](CC(C)C)NC(=O)CNC(=O)[C@H](C)NC(=O)[C@@H](NC(=O)[C@H](CC(C)C)NC(=O)[C@@H]2CCCN2C(=O)[C@H](CC(C)C)NC(=O)[C@@H](N)Cc2ccccc2)[C@@H](C)CC)CSSC[C@@H](C(=O)O)NC(=O)[C@H](CCCCN)NC(=O)[C@H](CCCCN)NC(=O)[C@H]([C@@H](C)O)NC1=O` [FLPLIAGLAAKCAITKKC], the MIC in assay [1] was over 512 µM; in assay [2], at least 512 µM; in assay [3], at least 512 µM; in [4] it was at least 512 µM; in [5], at least 512 µM; in assay [6], at least 512 µM. The compound further gave an MIC in [7] of at least 512 µM.
Consider `CC(C)C[C@H](NC(=O)[C@H](CCC(N)=O)NC(=O)[C@H](CCC(N)=O)NC(=O)[C@H](C)NC(=O)CNC(=O)[C@H](C)NC(=O)[C@H](CCCCN)NC(=O)CNC(=O)[C@@H](NC(=O)[C@H](CCC(N)=O)NC(=O)[C@H](CCCCN)NC(=O)[C@@H]1CCCN1C(=O)[C@H](CC(C)C)NC(=O)[C@H](Cc1ccc(O)cc1)NC(=O)[C@H](CCCCN)NC(=O)[C@H](C)NC(=O)CNC(=O)[C@H](C)NC(=O)[C@H](CCCCN)NC(=O)[C@H](Cc1ccccc1)NC(=O)[C@H](CC(C)C)NC(=O)[C@H](CO)NC(=O)[C@H](CO)NC(=O)[C@H](Cc1ccccc1)NC(=O)CN)C(C)C)C(N)=O` [GFSSLFKAGAKYLPKQVGKAGAQQL], for which the MIC in assay [1] is over 512 µM; in assay [2] it was at least 512 µM; in [3] it was at least 512 µM; in [4] it was at least 512 µM; in assay [5], at least 512 µM; in assay [6], at least 512 µM. This compound had an MIC in [7] of at least 512 µM.
As for `CC[C@H](C)[C@H](NC(=O)[C@H](CCCCN)NC(=O)[C@H](CO)NC(=O)[C@H](Cc1c[nH]c2ccccc12)NC(=O)[C@H](CC(C)C)NC(=O)CN)C(=O)N[C@@H](CCCCN)C(=O)N[C@@H](CCCCN)C(=O)N[C@@H](C)C(=O)N[C@@H](C)C(=O)N[C@@H](CCCCN)C(=O)N[C@H](C(=O)N[C@@H](C)C(=O)NCC(=O)N[C@@H](CCCCN)C(=O)N[C@@H](C)C(=O)N[C@@H](C)C(=O)N[C@@H](CC(C)C)C(=O)NCC(=O)N[C@@H](Cc1ccccc1)C(=O)N[C@H](C(=O)N[C@@H](CC(N)=O)C(=O)N[C@@H](CCCCN)C(=O)N[C@@H](CCSC)C(=O)N[C@H](C(N)=O)C(C)C)C(C)C)[C@@H](C)O` [GLWSKIKKAAKTAGKAALGFVNKMV], the MIC in assay [1] came out at 4 µM (≈ 10.5 µg/mL); in [2], 2 µM (≈ 5.23 µg/mL); in assay [3] it was 2 µM (≈ 5.23 µg/mL); in assay [4], 2 µM (≈ 5.23 µg/mL); in assay [5], 2 µM (≈ 5.23 µg/mL); in [6] it was 4 µM (≈ 10.5 µg/mL). The compound also showed an MIC in assay [7] of 2 µM (≈ 5.23 µg/mL).
`CC[C@H](C)[C@H](NC(=O)[C@H](CC(C)C)NC(=O)[C@H](Cc1cnc[nH]1)NC(=O)CNC(=O)[C@H](CC(C)C)NC(=O)[C@@H](NC(=O)[C@H](CCCCN)NC(=O)[C@H](CO)NC(=O)[C@H](Cc1c[nH]c2ccccc12)NC(=O)[C@H](CCSC)NC(=O)CN)[C@@H](C)CC)C(=O)N[C@@H](CCCN=C(N)N)C(N)=O` [GMWSKILGHLIR]: the MIC in assay [11] amounted to 45 µM (≈ 63.4 µg/mL); in assay [12] it was 6.2 µM (≈ 8.74 µg/mL); in assay [13] it was 0.8 µM (≈ 1.13 µg/mL); in [14] it was 3.8 µM (≈ 5.36 µg/mL); in assay [9], 7.7 µM (≈ 10.9 µg/mL).
`CSCC[C@H](NC(=O)CN)C(=O)N[C@@H](Cc1c[nH]c2ccccc12)C(=O)N[C@@H](CO)C(=O)N[C@@H](CCCCN)C(=O)N[C@@H](CC(C)C)C(=O)N[C@@H](CC(C)C)C(=O)NCC(=O)N[C@@H](Cc1cnc[nH]1)C(=O)N[C@@H](CC(C)C)C(=O)N[C@@H](CC(C)C)C(=O)N[C@@H](CCCN=C(N)N)C(N)=O` [GMWSKLLGHLLR]: the minimal inhibitory concentration (MIC) in [11] was 20.2 µM (≈ 28.5 µg/mL); in assay [12], 5 µM (≈ 7.05 µg/mL); in [13] it was 1.3 µM (≈ 1.83 µg/mL); in assay [14], 3 µM (≈ 4.23 µg/mL); in assay [9], 7.7 µM (≈ 10.9 µg/mL).
On to `CC[C@H](C)[C@H](N)C(=O)N[C@@H](CC(C)C)C(=O)N1CCC[C@H]1C(=O)N[C@@H](Cc1c[nH]c2ccccc12)C(=O)N[C@@H](CCCCN)C(=O)N[C@@H](Cc1c[nH]c2ccccc12)C(=O)N[C@@H](C)C(=O)N[C@@H](Cc1c[nH]c2ccccc12)C(=O)N[C@@H](Cc1c[nH]c2ccccc12)C(=O)N[C@@H](C)C(=O)N[C@@H](Cc1c[nH]c2ccccc12)C(=O)N[C@@H](CCCN=C(N)N)C(=O)N[C@@H](CCCN=C(N)N)C(N)=O` [ILPWKWAWWAWRR], for which the minimum inhibitory concentration (MIC) in assay [11] was determined as 100 µM (≈ 185 µg/mL); in assay [15], 15 µM (≈ 27.8 µg/mL); in assay [16], 25 µM (≈ 46.4 µg/mL); in assay [17] it was 25 µM (≈ 46.4 µg/mL).
Turning to `CSCC[C@H](NC(=O)[C@H](C)NC(=O)[C@H](CC(C)C)NC(=O)[C@H](CCCCN)NC(=O)[C@H](CC(C)C)NC(=O)[C@H](CC(C)C)NC(=O)[C@H](CCCCN)NC(=O)[C@H](CCCCN)NC(=O)[C@@H](NC(=O)[C@@H](N)CC(C)C)C(C)C)C(=O)NCC(=O)N[C@@H](Cc1ccccc1)C(=O)NCC(N)=O` [LVKKLLKLAMGFG], the MIC in [11] is over 100 µM; in [12], 25 µM (≈ 35.4 µg/mL); in assay [13], 3.7 µM (≈ 5.24 µg/mL); in assay [14], 14.7 µM (≈ 20.8 µg/mL); in assay [9], 90 µM (≈ 128 µg/mL).
For the compound `CC[C@H](C)[C@H](NC(=O)[C@@H](NC(=O)[C@H](CS)NC(=O)[C@H](Cc1ccc(O)cc1)NC(=O)[C@@H](NC(=O)[C@H](CO)NC(=O)[C@@H]1CCCN1C(=O)[C@@H](NC(=O)[C@@H](NC(=O)[C@H](CCCCN)NC(=O)[C@H](CO)NC(=O)[C@H](C)NC(=O)[C@H](CC(C)C)NC(=O)[C@H](CCCCN)NC(=O)[C@H](Cc1ccccc1)NC(=O)[C@@H](NC(=O)[C@@H](N)C(C)C)C(C)C)C(C)C)C(C)C)C(C)C)[C@@H](C)O)C(=O)N[C@H](C(=O)N[C@@H](CCCCN)C(=O)N[C@@H](CCCCN)C(=O)O)[C@@H](C)O` [VVFKLASKVVPSVYCTITKK], the MIC in assay [8] was at least 116 µM; in [10] it was 116 µM (≈ 256 µg/mL).
